# Source: PubChem BioAssay (NCI)
# “And” between values parts separate entries of the source, which are not always exact repeats. Equal entries are not always repeated.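 Results reflect a 48-hour exposure of cells in 96-well plates to compound at five concentrations. The concentration for 50% growth inhibition is given as GI50. TGI marks complete inhibition of growth.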 Starred links: 1 amine or outer side, 2 acyl side, 3 side chain; linkers in the order of their positions; H or OH if unused. Positions of bridges follow the written chain, without caps; N, C: chain ends. Non-standard residues stand in square brackets, D forms with d. Residues, ends and D or L forms follow the SMILES beside them. Chains are numbered I, II in the order given. Actinocin(9to1) = Cc1c2oc3c(C)ccc(C(=O)[*:1])c3nc-2c(C(=O)[*:2])c(N)c1=O; NMeY = CN[CH](Cc1ccc(O)cc1)C(=O)O; Sar = CNCC(=O)O
# Tests used:
# Experiment in all cases: NCI anticancer screen, dose series, 48 h
# [1] = tested on: SR leukemia
# [2] = tested on: U251 CNS
# [3] = tested on: NCI-H460 lung
# [4] = tested on: SF-295 CNS
# [5] = tested on: IGROV1 ovarian
# [6] = tested on: MOLT-4 leukemia
# [7] = tested on: SF-539 CNS
# [8] = tested on: CAKI-1 renal
# [9] = tested on: HS 578T breast
# [10] = tested on: OVCAR-4 ovarian
Compound,TGI [1] [µM],TGI [2] [µM],TGI [3] [µM],TGI [4] [µM],TGI [5] [µM],TGI [6] [µM],TGI [7],TGI [8] [µM],TGI [9],TGI [10] [µM],GI50 [3],GI50 [4],GI50 [6]
CN(C)c1ccc(/C=c2/c3ccccc3n3c2c2c([n+]3C)CCCC2)cc1,1.06,2.3,0.758,0.653,1.82,1.59,1.42 µM,4.8,7.21 µM,4.58,–,–,–
"Cc1c2oc3c(C)ccc(C(=O)NC4C(=O)NC(C(C)C)C(=O)N5CCCC5C(=O)N(C)CC(=O)N(C)C(Cc5ccc(O)cc5)C(=O)OC4C)c3nc-2c(C(=O)NC2C(=O)NC(C(C)C)C(=O)N3CCCC3C(=O)N(C)CC(=O)N(C)C(Cc3ccc(O)cc3)C(=O)OC2C)c(N)c1=O (configuration not stated) (I: TVP[Sar][NMeY] / II: TVP[Sar][NMeY]; ester I:1-I:C, II:1-II:C; linker I:N-II:N via Actinocin(9to1); configuration not given here)",> 0.514,> 1,> 1,> 1,> 1,–,0.224 µM and 0.152 µM,> 1,0.0521 µM and 0.0624 µM,> 0.301,0.0056 µM and 0.000964 µM,0.0438 µM and 0.0157 µM,0.00426 µM and 0.00176 µM
COC(=O)/C=C(\C(=O)OC)C1C(=O)Oc2c(C)c(=O)c3ccccc3n21 (configuration not stated),> 100,> 100,> 100,> 100,> 100,> 100,> 100 µM,> 100,> 100 µM,> 100,–,–,–
